PMC9409145, “(-)-Epicatechin Is a Biased Ligand of Apelin Receptor” (International Journal of Molecular Sciences, 2022)

Tests used:
[1] = molecular target: T1, apelin receptor (APLNR; APJ), PathHunter eXpress (Homo sapiens, UniProt P35414); test: beta-arrestin-2 recruitment, enzyme complementation chemiluminescence; format: cell-based; settings: antagonist; cells pre-incubated with ML221, then EC as agonist
T1 construct: full-length receptor with C-terminal ProLink (beta-galactosidase fragment) tag, stably expressed in CHO-K1 with enzyme-acceptor-tagged beta-arrestin-2
T1 sequence (P35414 1-380): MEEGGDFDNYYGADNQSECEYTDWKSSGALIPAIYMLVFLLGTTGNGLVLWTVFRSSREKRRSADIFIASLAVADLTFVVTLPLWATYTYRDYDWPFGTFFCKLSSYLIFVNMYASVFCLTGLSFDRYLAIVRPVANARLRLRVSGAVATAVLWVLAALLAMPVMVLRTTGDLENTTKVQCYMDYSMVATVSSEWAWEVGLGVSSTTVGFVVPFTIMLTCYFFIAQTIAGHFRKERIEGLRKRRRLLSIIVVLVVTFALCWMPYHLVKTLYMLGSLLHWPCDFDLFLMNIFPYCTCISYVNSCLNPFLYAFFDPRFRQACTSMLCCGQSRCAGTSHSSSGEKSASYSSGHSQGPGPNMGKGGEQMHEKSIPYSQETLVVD

[2] = molecular target: T1, apelin receptor (APLNR; APJ), PathHunter eXpress; test: beta-arrestin-2 recruitment, enzyme complementation chemiluminescence, specific binding with Hill slope fit; format: cell-based; settings: agonist; apparent constant from functional response, not a radioligand; 1 h incubation; CHO-K1 cells; read-out: Kd
From the text: beta-arrestin-2 recruitment, enzyme complementation chemiluminescence, specific binding with Hill slope fit on apelin receptor (APLNR; APJ), PathHunter eXpress

[3] = molecular target: T2, apelin receptor (mouse skeletal muscle) (Mus musculus, UniProt Q9WV08); test: affinity chromatography on immobilised epicatechin, MS identification; format: binding; settings: muscle homogenate, 4 °C overnight, PBS pH 7.4; acid elution (MES pH 4.5); immobilised ligand
T2 construct: gene Aplnr
T2 sequence (Q9WV08 1-377): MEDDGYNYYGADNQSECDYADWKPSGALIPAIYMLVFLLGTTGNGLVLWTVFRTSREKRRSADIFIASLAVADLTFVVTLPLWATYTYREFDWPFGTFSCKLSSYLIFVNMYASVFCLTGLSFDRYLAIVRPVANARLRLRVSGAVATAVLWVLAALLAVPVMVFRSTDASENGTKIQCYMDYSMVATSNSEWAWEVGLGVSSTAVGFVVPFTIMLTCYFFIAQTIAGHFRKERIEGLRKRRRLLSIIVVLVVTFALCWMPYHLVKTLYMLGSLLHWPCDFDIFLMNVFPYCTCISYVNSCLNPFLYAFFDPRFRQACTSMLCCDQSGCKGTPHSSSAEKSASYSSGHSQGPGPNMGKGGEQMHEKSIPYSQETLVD

| SMILES | beta-arrestin-2 recruitment, enzyme complementation chemiluminescence [1] | EC50 [2] | affinity chromatography on immobilised epicatechin, MS identification [3] |
| --- | --- | --- | --- |
| O=C(Oc1coc(CSc2ncccn2)cc1=O)c1ccc([N+](=O)[O-])cc1 [ML221, 5-[(4-Nitrobenzoyl)oxy]-2-[(2-pyrimidinylthio)methyl]-4H-pyran-4-one] | the interaction of the antagonist with the receptor and the blockage of the effect of EC | – | – |
| Oc1cc(O)c2c(c1)O[C@H](c1ccc(O)c(O)c1)[C@H](O)C2 [EC, (-)-epicatechin] | – | 1.76 pM | Five proteins were identified as receptors: apelin receptor |
